melting point | SMILES
159 to 162 °C | CC(C)CC1=C(CN(C)C)CCc2cc(NC(=O)c3ccc(-c4ccc(Cl)cc4)cc3)ccc21 [Example 113, 4′-Chloro-N-(6-[(dimethylamino)methyl)-5-isobutyl-7,8-dihydro-2-naphthalenyl][1,1′-biphenyl]-4-carboxamide]
165 to 167 °C | COc1ccc(-c2ccc(C(=O)Nc3ccc4c(c3)CCC(CN3CCCC3)=C4C)cn2)cc1 [Example 116, 6-(4-Methoxyphenyl)-N-[5-methyl-6-(1-pyrrolidinylmethyl)-7,8-dihydro-2-naphthalenyl]nicotinamide]
191 to 192 °C | N#CC1=C(CN2CCCC2)CCc2cc(NC(=O)c3ccc(-c4ccc(Cl)cc4)cc3)ccc21 [Example 117, 4′-Chloro-N-[5-cyano-6-(1-pyrrolidinylmethyl)-7,8-dihydro-2-naphthalenyl][1,1′-biphenyl]-4-carboxamide]
168 to 170 °C | N#CC1=C(CN2CCCC2)CCc2cc(NC(=O)c3ccc(-c4ccccc4)cc3)ccc21 [Example 118, N-[5-Cyano-6-(1-pyrrolidinylmethyl)-7,8-dihydro-2-naphthalenyl][1,1′-biphenyl]-4-carboxamide]
145 to 148 °C | CN(C)CC1CCc2cc(NC(=O)c3cccc(-c4ccccc4)c3)ccc2C1 (stereo not shown) [Example 120, N-[6-[(Dimethylamino)methyl]-5,6,7,8-tetrahydro-2-naphthalenyl][1,1′-biphenyl]-3-carboxamide]
190 to 192 °C | CN(C)CC1CCc2cc(NC(=O)c3cc4ccccc4[nH]3)ccc2C1 (stereo not shown) [Example 122]
168 to 171 °C | CN(C)CC1=Cc2ccc(NC(=O)CNC(=O)c3ccc(Cl)cc3)cc2CC1 [Example 126, 4-Chloro-N-[2-[[6-[(dimethylamino)methyl]-7,8-dihydro-2-naphthalenyl]amino]-2-oxoethyl]benzamide]
202 to 203 °C | CN(C)CC1=Cc2ncc(NC(=O)c3ccc(-c4ccccc4)cc3)cc2CC1 [Example 133, N-[7-[(Dimethylamino)methyl]-5,6-dihydro-3-quinolinyl][1,1′-biphenyl]-4-carboxamide]
220 to 222 °C | CN(C)CC1=Cc2ncc(NC(=O)c3ccc(-c4ccc(Cl)cc4)cc3)cc2CC1 [Example 134, 4′-Chloro-N-[7-[(dimethylamino)methyl]-5,6-dihydro-3-quinolinyl][1,1′-biphenyl]-4-carboxamide]
243 to 245 °C | COc1ccc(-c2ccc(C(=O)Nc3ccc4c(c3)OCC(CN3CCCC3)=C4)cn2)cc1 [Example 141, 6-(4-Methoxyphenyl)-N-[3-(1-pyrrolidinylmethyl)-2H-chromen-7-yl]nicotinamide]
187 to 188 °C | COc1ccc(-c2ccc(C(=O)Nc3ccc4c(c3)CCC(CN3CCCC3)=C4)cc2)cc1 [Example 148, 4′-Methoxy-N-[6-(1-pyrrolidinylmethyl)-7,8-dihydro-2-naphthalenyl][1,1′-biphenyl]-4-carboxamide]
225 to 227 °C | O=C(Nc1ccc2c(c1)CCC(CN1CCCC1)=C2)c1ccc(-c2ccc(F)cc2)nc1 [Example 149, 6-(4-Fluorophenyl)-N-[6-[(1-pyrrolidinyl)methyl]-7,8-dihydro-2-naphthalenyl]nicotinamide]
216 to 219 °C | CN(C)CC1=Cc2ccc(NC(=O)c3ccc(-c4ccc(F)cc4)nc3)cc2CC1 [Example 151]
162 to 163 °C | CN(C)CC1=Cc2ccc(NC(=O)c3ccc(-c4ccc(F)cc4F)nc3)cc2CC1 [Example 152, 6-(2,4-Difluorophenyl)-N-[6-[(dimethylamino)methyl]-7,8-dihydro-2-naphthalenyl]nicotinamide]
186 to 187 °C | O=C(Nc1ccc2c(c1)CCC(CN1CCCC1)=C2)c1ccc(-c2ccccc2)nc1 [Example 153, 6-Phenyl-N-[6-(1-pyrrolidinylmethyl)-7,8-dihydro-2-naphthalenyl]nicotinamide]
197 to 198 °C | Cc1ccc(C2CCN(C(=O)Nc3ccc4c(c3)CCC(CN3CCCC3)=C4)CC2)cc1 [Example 155, 4-(4-Methylphenyl)-N-[6-(1-pyrrolidinylmethyl)-7,8-dihydro-2-naphthalenyl]-1-piperidinecarboxamide]
206 to 207 °C | O=C(Nc1ccc2c(c1)CCC(CN1CCCC1)=C2)N1CC=C(c2ccc(F)cc2)CC1 [Example 158]
217 to 218 °C | O=C(Nc1ccc2c(c1)CCC(CN1CCCC1)=C2)N1CC=C(c2ccc(Cl)cc2)CC1 [Example 159]
252 to 253 °C | O=C(Nc1ccc2c(c1)CCC(CN1CCCC1)=C2)c1ccc(-c2ccc(Cl)cc2)nc1 [Example 162, 6-(4-Chlorophenyl)-N-[6-(1-pyrrolidinylmethyl)-7,8-dihydro-2-naphthalenyl]nicotinamide]
248 to 249 °C | CN(C)CC1=Cc2ccc(NC(=O)c3ccc(-c4ccc(Cl)cc4)nc3)cc2CC1 [Example 164, 6-(4-Chlorophenyl)-N-[6-[(dimethylamino)methyl]-7,8-dihydro-2-naphthalenyl]nicotinamide]
194 to 195 °C | O=C(Nc1ccc2c(c1)CCC(CN1CCCC1)=C2)N1CCC(c2ccc(Cl)cc2)CC1 [Example 165, 4-(4-Chlorophenyl)-N-[6-(1-pyrrolidinylmethyl)-7,8-dihydro-2-naphthalenyl]-1-piperidinecarboxamide]
200 to 202 °C | Cc1ccc(C2CCN(C(=O)Nc3ccc4c(c3)CCC(CN(C)C)=C4)CC2)cc1 [Example 167, N-[6-[(Dimethylamino)methyl]-7,8-dihydro-2-naphthalenyl]-4-(4-methylphenyl)-1-piperidinecarboxamide]
161 to 163 °C | CN(C)CCNC(=O)Cc1ccc(NC(=O)CCCc2nc(-c3cc4ccccc4o3)no2)cc1 [Example 182, 4-[3-(1-Benzofuran-2-yl)-1,2,4-oxadiazol-5-yl]-N-[4-[2-[[2-(dimethylamino)ethyl]amino]-2-oxoethyl]phenyl]butanamide]
186 to 187 °C (dec.) | CN(C)CCNC(=O)Cc1ccc(NC(=O)c2cc3ccccc3s2)cc1 [Example 185, N-[4-[2-[[2-(Dimethylamino)ethyl]amino]-2-oxoethyl]phenyl]-1-benzothiophen-2-carboxamide]
115 to 117 °C | CN(C)CCNC(=O)Cc1ccc(NC(=O)Cc2ccccc2Cc2ccccc2)cc1 [Example 186, 2-(2-Benzylphenyl)-N-[4-[2-[[2-(dimethylamino)ethyl]amino]-2-oxoethyl]phenyl]acetamide]
123 to 124 °C | COc1ccc(CC(=O)Nc2ccc(CC(=O)NCCN(C)C)cc2)cc1OC [Example 187, 2-(3,4-dimethoxyphenyl)-N-[4-[2-[[2-(dimethylamino)ethyl]amino]-2-oxoethyl]phenyl]acetamide]
125 to 126 °C | COc1ccc2[nH]c(C)c(CC(=O)Nc3ccc(CC(=O)NCCN(C)C)cc3)c2c1 [Example 188, N-[4-[2-[[2-(Dimethylamino)ethyl]amino]-2-oxoethyl]phenyl]-2-(5-methoxy-2-methyl-1H-indol-3-yl)acetamide]
132 to 133 °C | CN(C)CCNC(=O)Cc1ccc(NC(=O)CCCc2c[nH]c3ccccc23)cc1 [Example 189, N-[4-[2-[[2-(Dimethylamino)ethyl]amino]-2-oxoethyl]phenyl]-4-(1H-indol-3-yl)butanamide]

From patent US7115750B1, “Melanin concentrating hormone antagonist” (Takeda Pharmaceutical Company Limited, priority 1999, dated 2006)
